Source: patent US20220031636A1, “COMPOUNDS THAT ENHANCE THE ACTION OF METFORMIN” (SOCIETE DES PRODUiTS NESTLE S.A., priority 2018, published 2022)
Entries after “also recorded” stand apart in the source; their conditions may differ.

Key:
[1] = target: T1, bacterially-expressed AMPKα2β1γ1 (Homo sapiens, UniProt P54619+P54646+Q9Y478); experiment: HTRF-KinEASE kinase assay of phosphorylated AMPK heterotrimer with AMP and fixed concentrations of Lusianthridin; format: biochemical
T1 construct: His; made in house
T1 sequence (P54646 whole entry): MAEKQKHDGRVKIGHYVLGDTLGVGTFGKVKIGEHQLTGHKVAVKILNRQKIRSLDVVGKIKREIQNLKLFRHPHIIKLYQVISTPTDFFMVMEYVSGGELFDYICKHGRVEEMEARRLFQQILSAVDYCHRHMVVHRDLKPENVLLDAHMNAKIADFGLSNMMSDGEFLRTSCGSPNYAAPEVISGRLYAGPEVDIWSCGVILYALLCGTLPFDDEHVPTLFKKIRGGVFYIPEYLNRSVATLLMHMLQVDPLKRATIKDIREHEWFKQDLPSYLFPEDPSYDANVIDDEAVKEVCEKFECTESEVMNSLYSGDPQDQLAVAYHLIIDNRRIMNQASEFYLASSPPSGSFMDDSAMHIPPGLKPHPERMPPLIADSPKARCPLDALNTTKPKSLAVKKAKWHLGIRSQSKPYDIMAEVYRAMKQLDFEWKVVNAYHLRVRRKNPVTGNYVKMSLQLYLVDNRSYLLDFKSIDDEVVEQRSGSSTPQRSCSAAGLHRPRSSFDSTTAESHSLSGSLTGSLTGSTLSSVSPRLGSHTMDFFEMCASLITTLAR
T1 sequence (Q9Y478 whole entry): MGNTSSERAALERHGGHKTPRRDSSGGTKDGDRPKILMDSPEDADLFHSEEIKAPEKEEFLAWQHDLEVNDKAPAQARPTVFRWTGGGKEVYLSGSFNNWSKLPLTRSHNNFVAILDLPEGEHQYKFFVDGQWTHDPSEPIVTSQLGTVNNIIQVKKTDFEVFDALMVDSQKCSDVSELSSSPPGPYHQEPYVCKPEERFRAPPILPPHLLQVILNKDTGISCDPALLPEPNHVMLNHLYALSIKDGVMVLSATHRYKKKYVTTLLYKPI
T1 sequence (P54619 whole entry): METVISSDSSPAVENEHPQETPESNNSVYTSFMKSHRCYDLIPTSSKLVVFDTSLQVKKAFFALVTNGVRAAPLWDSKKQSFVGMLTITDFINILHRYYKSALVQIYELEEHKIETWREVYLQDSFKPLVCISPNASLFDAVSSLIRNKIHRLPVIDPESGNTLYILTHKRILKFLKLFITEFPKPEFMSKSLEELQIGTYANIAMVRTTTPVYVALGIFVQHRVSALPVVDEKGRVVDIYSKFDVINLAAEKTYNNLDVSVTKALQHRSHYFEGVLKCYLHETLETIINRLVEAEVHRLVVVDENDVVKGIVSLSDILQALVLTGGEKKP
Protocol: The AMPK heterotrimers were expressed in bacteria and purified through the His-α subunit by nickel purification, further purified through gel filtration and finally phosphorylated by incubation with CaMKKβ. This phosphorylated AMPK was incubated with varying concentrations of AMP for 30 mins using substrate and reagents from the HTRF-KinEASE Cisbio assay kit (STK S1 Kit). Phosphorylation of the substrate was measured by incubating with donor and acceptor antibodies for 2 h at room temperature as per the manufacturer's protocol (and Coulerie et al., (2016), see below) and phosphorylated peptide detected by performing HTRF.

primary hepatocytes = experiment: Lipogenesis in primary hepatocytes ([1-14C]-acetate incorporation into fatty acids); format: cell-based; details: low/non-saturating concentration, 1 h at 37 C
Protocol: Hepatocyte isolation: The liver was first perfused with 50 ml perfusion buffer (Krebs-Hepes buffer with […] EDTA), followed with 50 ml collagenase A buffer (Krebs-Hepes buffer with 5 mM CaCl2) and 0.5 mg/ml collagenase). After passage through a 100 μm mesh, the cell solution was washed several times with cold media and finally the cell culture pellet was resuspended in culture medium (medium 199 (M199)+GlutaMAX, 100 U/ml penicillin G, and 100 μg/ml streptomycin, 0.1% (wt/vol) BSA, 10% FCS, 10 nM insulin, 200 nM triiodothyronine and 500 nM dexamethasone). Hepatocytes were left to attach (3-4 h) and cultured overnight in M199 supplemented with antibiotics and 100 nM dexamethasone. Cells were used for experiments the following morning.
For lipogenesis measurements in primary hepatocytes, cells were seeded at 600 K cells per well in a 6-well plate overnight. Media was replaced with fresh M199 media alone for 2 hours prior to incubation with varying concentrations of Lusianthridin or compound 1 for 1 h at 37 C, in the presence of [1-^14C]-acetate. The incorporation of [^14C] into fatty acids was determined in the lower organic layer after separation from the aqueous phase.
Lipogenesis is controlled by the AMPK substrate ACC, and phosphorylation and inhibition of ACC by AMPK, leads to a decrease in lipogenesis. Lipogenesis was measured in primary hepatocytes by determining the incorporation of ^14C-labelled acetate into fatty acids.
Lipogenesis was monitored in the presence or absence of a low/non-saturating concentration of Lusianthridin or metformin for 1 h at 37 C. Furthermore, cells were incubated in the presence of both of these compounds.

SMILES | AMPK activity (HTRF 665 nm/620 nm ratio) ([1]; AMP alone, varying concentrations, 30 mins) | inhibition of lipogenesis, compound alone (% lipogenesis compared to control untreated cells) (primary hepatocytes) | activation of AMPK in combination with AMP ([1]; fixed concentrations of Lusianthridin plus varying AMP) | inhibition of lipogenesis, compound alone (% lipogenesis compared to control untreated cells) (primary hepatocytes; listed as metformin)
Nc1ncnc2c1ncn2[C@@H]1O[C@H](COP(=O)(O)O)[C@@H](O)[C@H]1O [AMP, reference compound] | dose-dependent increase in AMPK activity |  |  | 
COc1cc(O)c2c(c1)CCc1cc(O)ccc1-2 [Lusianthridin, 7-Methoxy-9,10-dihydrophenanthrene-2,5-diol] |  | inhibition of lipogenesis; also recorded: able to inhibit lipogenesis | additive activation of AMPK; also recorded: Additive Effect on AMP Activation | 
CN(C)C(=N)N=C(N)N [Metformin] |  | inhibition of lipogenesis |  | able to inhibit lipogenesis
